ChEMBL document CHEMBL4507316 (2021)

Experiments:
[1] = target: T1, 5-hydroxytryptamine receptor 2B (Homo sapiens, UniProt P41595); experiment: GPCRScan assay: inhibition of 5-HT2B; parameters: radioligand conc. used [nm] 1.0 – 2.0, parental cells stable HEK
[2] = target: Activated CDC42 kinase 1 (Homo sapiens) (UniProt Q07912); experiment: ACK1 ProQinase selectivity panel; conditions: Compound concentration 1.0 uM
[3] = target: RAC-alpha serine/threonine-protein kinase (Homo sapiens) (UniProt P31749); experiment: AKT1 ProQinase selectivity panel; conditions: Compound concentration 1.0 uM
[4] = target: Tyrosine-protein kinase receptor UFO (Homo sapiens) (UniProt P30530); experiment: AXL ProQinase selectivity panel; conditions: Compound concentration 1.0 uM
[5] = target: Calcium/calmodulin-dependent protein kinase type II subunit beta (Homo sapiens) (UniProt Q13554); experiment: CAMK2B ProQinase selectivity panel; conditions: Compound concentration 1.0 uM
[6] = target: Cyclin-dependent kinase 2/cyclin A (Homo sapiens) (UniProt P24941+P20248+P78396); experiment: CDK2/CycA ProQinase selectivity panel; assay type: protein-complex assay; conditions: Compound concentration 1.0 uM
[7] = target: Cyclin-dependent kinase 9 (Homo sapiens) (UniProt P50750); experiment: CDK9/CycT ProQinase selectivity panel; conditions: Compound concentration 1.0 uM
[8] = target: Serine/threonine-protein kinase Chk2 (Homo sapiens) (UniProt O96017); experiment: CHK2 ProQinase selectivity panel; conditions: Compound concentration 1.0 uM
[9] = target: Mitogen-activated protein kinase kinase kinase 8 (Homo sapiens) (UniProt P41279); experiment: COT ProQinase selectivity panel; conditions: Compound concentration 1.0 uM
[10] = target: Death-associated protein kinase 2 (Homo sapiens) (UniProt Q9UIK4); experiment: DAPK2 ProQinase selectivity panel; conditions: Compound concentration 1.0 uM
[11] = target: Myotonin-protein kinase (Homo sapiens) (UniProt Q09013); experiment: DMPK ProQinase selectivity panel; conditions: Compound concentration 1.0 uM
[12] = system: Epidermal growth factor receptor (Homo sapiens), P00533 [G719S]; experiment: EGF-R G719S ProQinase selectivity panel; conditions: Compound concentration 1.0 uM
[13] = target: Interferon-induced, double-stranded RNA-activated protein kinase (Homo sapiens) (UniProt P19525); experiment: EIF2AK2 ProQinase selectivity panel; conditions: Compound concentration 1.0 uM
[14] = target: Fibroblast growth factor receptor 1 (Homo sapiens) (UniProt P11362); experiment: FGF-R1 wt ProQinase selectivity panel; conditions: Compound concentration 1.0 uM
[15] = target: G protein-coupled receptor kinase 4 (Homo sapiens) (UniProt P32298); experiment: GRK4 ProQinase selectivity panel; conditions: Compound concentration 1.0 uM
[16] = system: Leucine-rich repeat serine/threonine-protein kinase 2 (Homo sapiens), Q5S007 [G2019S]; experiment: LRRK2 G2019S ProQinase selectivity panel; conditions: Compound concentration 1.0 uM
[17] = target: MAP kinase-activated protein kinase 2 (Homo sapiens) (UniProt P49137); experiment: MAPKAPK2 ProQinase selectivity panel; conditions: Compound concentration 1.0 uM
[18] = target: Serine/threonine-protein kinase MARK2 (Homo sapiens) (UniProt Q7KZI7); experiment: MARK2 ProQinase selectivity panel; conditions: Compound concentration 1.0 uM
[19] = system: Hepatocyte growth factor receptor (Homo sapiens), P08581 [Y1230D]; experiment: MET Y1230D ProQinase selectivity panel; conditions: Compound concentration 1.0 uM
[20] = target: Serine/threonine-protein kinase 26 (Homo sapiens) (UniProt Q9P289); experiment: MST4 ProQinase selectivity panel; conditions: Compound concentration 1.0 uM
[21] = target: Serine/threonine-protein kinase Nek11 (Homo sapiens) (UniProt Q8NG66); experiment: NEK11 ProQinase selectivity panel; conditions: Compound concentration 1.0 uM
[22] = target: Serine/threonine-protein kinase Nek4 (Homo sapiens) (UniProt P51957); experiment: NEK4 ProQinase selectivity panel; conditions: Compound concentration 1.0 uM
[23] = target: Serine/threonine-protein kinase Nek9 (Homo sapiens) (UniProt Q8TD19); experiment: NEK9 ProQinase selectivity panel; conditions: Compound concentration 1.0 uM
[24] = target: Mitogen-activated protein kinase kinase kinase 14 (Homo sapiens) (UniProt Q99558); experiment: NIK ProQinase selectivity panel; conditions: Compound concentration 1.0 uM
[25] = target: Mitogen-activated protein kinase 12 (Homo sapiens) (UniProt P53778); experiment: p38-gamma ProQinase selectivity panel; conditions: Compound concentration 1.0 uM
[26] = target: Serine/threonine-protein kinase PAK 1 (Homo sapiens) (UniProt Q13153); experiment: PAK1 ProQinase selectivity panel; conditions: Compound concentration 1.0 uM
[27] = target: Serine/threonine-protein kinase PAK 4 (Homo sapiens) (UniProt O96013); experiment: PAK4 ProQinase selectivity panel; conditions: Compound concentration 1.0 uM
[28] = system: Platelet-derived growth factor receptor alpha (Homo sapiens), P16234 [D842V]; experiment: PDGFR-alpha D842V ProQinase selectivity panel; conditions: Compound concentration 1.0 uM
[29] = target: Platelet-derived growth factor receptor beta (Homo sapiens) (UniProt P09619); experiment: PDGFR-beta ProQinase selectivity panel; conditions: Compound concentration 1.0 uM
[30] = target: Protein kinase C alpha type (Homo sapiens) (UniProt P17252); experiment: PKC-alpha ProQinase selectivity panel; conditions: Compound concentration 1.0 uM
[31] = target: Protein kinase C beta type (Homo sapiens) (UniProt P05771); experiment: PKC-beta2 ProQinase selectivity panel; conditions: Compound concentration 1.0 uM
[32] = target: Protein kinase C delta type (Homo sapiens) (UniProt Q05655); experiment: PKC-delta ProQinase selectivity panel; conditions: Compound concentration 1.0 uM
[33] = target: Protein kinase C epsilon type (Homo sapiens) (UniProt Q02156); experiment: PKC-epsilon ProQinase selectivity panel; conditions: Compound concentration 1.0 uM
[34] = target: Serine/threonine-protein kinase PLK1 (Homo sapiens) (UniProt P53350); experiment: PLK1 ProQinase selectivity panel; conditions: Compound concentration 1.0 uM
[35] = target: Receptor-interacting serine/threonine-protein kinase 2 (Homo sapiens) (UniProt O43353); experiment: RIPK2 ProQinase selectivity panel; conditions: Compound concentration 1.0 uM
[36] = target: Dual serine/threonine and tyrosine protein kinase (Homo sapiens) (UniProt Q6XUX3); experiment: RIPK5 ProQinase selectivity panel; conditions: Compound concentration 1.0 uM
[37] = target: Ribosomal protein S6 kinase alpha-2 (Homo sapiens) (UniProt Q15349); experiment: RPS6KA2 ProQinase selectivity panel; conditions: Compound concentration 1.0 uM
[38] = target: Ribosomal protein S6 kinase alpha-3 (Homo sapiens) (UniProt P51812); experiment: RPS6KA3 ProQinase selectivity panel; conditions: Compound concentration 1.0 uM
[39] = target: Serine/threonine-protein kinase Sgk2 (Homo sapiens) (UniProt Q9HBY8); experiment: SGK2 ProQinase selectivity panel; conditions: Compound concentration 1.0 uM
[40] = target: Serine/threonine-protein kinase Sgk3 (Homo sapiens) (UniProt Q96BR1); experiment: SGK3 ProQinase selectivity panel; conditions: Compound concentration 1.0 uM
[41] = target: Serine/threonine-protein kinase 25 (Homo sapiens) (UniProt O00506); experiment: STK25 ProQinase selectivity panel; conditions: Compound concentration 1.0 uM
[42] = target: BDNF/NT-3 growth factors receptor (Homo sapiens) (UniProt Q16620); experiment: TRK-B ProQinase selectivity panel; conditions: Compound concentration 1.0 uM
[43] = target: Tyrosine-protein kinase receptor TYRO3 (Homo sapiens) (UniProt Q06418); experiment: TYRO3 ProQinase selectivity panel; conditions: Compound concentration 1.0 uM
[44] = target: Vascular endothelial growth factor receptor 1 (Homo sapiens) (UniProt P17948); experiment: VEGF-R1 ProQinase selectivity panel; conditions: Compound concentration 1.0 uM
[45] = target: Vascular endothelial growth factor receptor 2 (Homo sapiens) (UniProt P35968); experiment: VEGF-R2 ProQinase selectivity panel; conditions: Compound concentration 1.0 uM
[46] = target: T1, 5-hydroxytryptamine receptor 2B; conditions: Compound concentration 10.0 uM
[47] = target: Kappa-type opioid receptor (Homo sapiens) (UniProt P41145); conditions: Compound concentration 10.0 uM
[48] = target: Alpha-2C adrenergic receptor (Homo sapiens) (UniProt P18825); conditions: Compound concentration 10.0 uM
[49] = target: Beta-2 adrenergic receptor (Homo sapiens) (UniProt P07550); conditions: Compound concentration 10.0 uM

T1 sequence (P41595 whole entry): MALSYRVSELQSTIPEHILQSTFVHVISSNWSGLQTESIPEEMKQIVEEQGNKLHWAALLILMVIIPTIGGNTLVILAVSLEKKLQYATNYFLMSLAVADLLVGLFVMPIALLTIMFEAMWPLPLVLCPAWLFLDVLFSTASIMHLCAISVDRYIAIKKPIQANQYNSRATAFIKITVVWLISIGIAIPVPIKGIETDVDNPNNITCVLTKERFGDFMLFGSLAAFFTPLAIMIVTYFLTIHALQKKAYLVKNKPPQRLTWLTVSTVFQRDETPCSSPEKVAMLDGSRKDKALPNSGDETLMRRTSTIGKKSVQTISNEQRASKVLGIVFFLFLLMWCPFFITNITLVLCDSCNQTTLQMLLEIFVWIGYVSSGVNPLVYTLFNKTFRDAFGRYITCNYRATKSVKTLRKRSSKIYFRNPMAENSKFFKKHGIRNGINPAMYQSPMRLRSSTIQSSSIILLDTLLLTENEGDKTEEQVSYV
Sequence of Tyrosine-protein kinase receptor UFO (Homo sapiens) (P30530 whole entry): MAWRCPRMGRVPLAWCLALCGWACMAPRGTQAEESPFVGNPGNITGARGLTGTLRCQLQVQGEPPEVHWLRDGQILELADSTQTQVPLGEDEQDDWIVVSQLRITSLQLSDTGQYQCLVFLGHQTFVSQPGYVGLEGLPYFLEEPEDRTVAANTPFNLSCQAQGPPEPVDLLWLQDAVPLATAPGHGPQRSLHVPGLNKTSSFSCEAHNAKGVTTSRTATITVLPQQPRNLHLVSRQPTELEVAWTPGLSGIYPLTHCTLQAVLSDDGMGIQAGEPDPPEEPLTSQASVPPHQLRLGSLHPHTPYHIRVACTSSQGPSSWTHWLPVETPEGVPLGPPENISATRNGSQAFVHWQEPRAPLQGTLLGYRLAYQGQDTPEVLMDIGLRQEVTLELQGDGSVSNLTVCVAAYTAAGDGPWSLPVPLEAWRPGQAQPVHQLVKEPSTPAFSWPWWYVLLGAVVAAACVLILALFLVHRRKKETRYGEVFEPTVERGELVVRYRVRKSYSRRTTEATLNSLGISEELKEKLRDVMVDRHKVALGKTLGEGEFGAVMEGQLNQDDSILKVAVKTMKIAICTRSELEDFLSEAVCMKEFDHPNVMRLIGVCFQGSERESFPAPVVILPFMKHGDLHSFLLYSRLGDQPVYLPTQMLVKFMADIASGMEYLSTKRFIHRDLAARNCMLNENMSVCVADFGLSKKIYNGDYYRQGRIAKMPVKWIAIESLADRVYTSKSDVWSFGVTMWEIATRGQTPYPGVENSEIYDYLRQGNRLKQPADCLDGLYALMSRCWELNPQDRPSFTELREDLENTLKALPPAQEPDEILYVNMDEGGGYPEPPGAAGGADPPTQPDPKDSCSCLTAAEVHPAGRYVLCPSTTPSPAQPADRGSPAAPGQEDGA
Sequence of Serine/threonine-protein kinase PLK1 (Homo sapiens) (P53350 whole entry): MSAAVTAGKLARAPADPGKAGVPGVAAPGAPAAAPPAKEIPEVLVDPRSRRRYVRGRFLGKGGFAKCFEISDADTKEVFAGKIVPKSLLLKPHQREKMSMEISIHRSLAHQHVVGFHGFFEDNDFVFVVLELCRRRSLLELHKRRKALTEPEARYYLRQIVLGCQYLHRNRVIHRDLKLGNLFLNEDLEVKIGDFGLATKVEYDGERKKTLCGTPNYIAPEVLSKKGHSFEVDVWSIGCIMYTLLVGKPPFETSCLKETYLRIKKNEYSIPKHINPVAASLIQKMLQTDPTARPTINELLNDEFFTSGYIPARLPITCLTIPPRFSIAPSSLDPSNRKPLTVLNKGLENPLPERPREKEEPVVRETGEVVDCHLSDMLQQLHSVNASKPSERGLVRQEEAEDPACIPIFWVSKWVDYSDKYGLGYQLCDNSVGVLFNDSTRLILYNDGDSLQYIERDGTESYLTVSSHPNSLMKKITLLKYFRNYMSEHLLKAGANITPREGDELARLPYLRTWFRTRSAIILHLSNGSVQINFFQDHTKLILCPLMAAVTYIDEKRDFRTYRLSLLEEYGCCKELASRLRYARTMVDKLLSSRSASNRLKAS
Sequence of Ribosomal protein S6 kinase alpha-2 (Homo sapiens) (Q15349 whole entry): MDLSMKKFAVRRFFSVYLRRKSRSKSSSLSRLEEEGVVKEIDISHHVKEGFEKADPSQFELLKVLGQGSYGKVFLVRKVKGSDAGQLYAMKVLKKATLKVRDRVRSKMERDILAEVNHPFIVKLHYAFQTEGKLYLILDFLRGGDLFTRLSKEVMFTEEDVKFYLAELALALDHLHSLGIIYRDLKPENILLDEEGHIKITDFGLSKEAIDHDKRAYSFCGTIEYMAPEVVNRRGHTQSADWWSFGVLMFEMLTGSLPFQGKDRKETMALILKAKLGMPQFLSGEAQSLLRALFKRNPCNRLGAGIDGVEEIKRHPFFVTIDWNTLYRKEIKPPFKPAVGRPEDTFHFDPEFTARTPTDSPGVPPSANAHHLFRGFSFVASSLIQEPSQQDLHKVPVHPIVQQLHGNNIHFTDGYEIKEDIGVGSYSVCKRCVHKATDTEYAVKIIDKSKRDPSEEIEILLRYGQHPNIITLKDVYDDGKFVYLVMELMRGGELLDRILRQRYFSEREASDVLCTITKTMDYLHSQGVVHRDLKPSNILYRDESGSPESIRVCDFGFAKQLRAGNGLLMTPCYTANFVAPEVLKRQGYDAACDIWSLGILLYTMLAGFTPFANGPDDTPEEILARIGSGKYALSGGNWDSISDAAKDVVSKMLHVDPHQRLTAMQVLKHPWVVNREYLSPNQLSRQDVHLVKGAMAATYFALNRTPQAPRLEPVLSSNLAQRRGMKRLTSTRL
Sequence of Kappa-type opioid receptor (Homo sapiens) (P41145 whole entry): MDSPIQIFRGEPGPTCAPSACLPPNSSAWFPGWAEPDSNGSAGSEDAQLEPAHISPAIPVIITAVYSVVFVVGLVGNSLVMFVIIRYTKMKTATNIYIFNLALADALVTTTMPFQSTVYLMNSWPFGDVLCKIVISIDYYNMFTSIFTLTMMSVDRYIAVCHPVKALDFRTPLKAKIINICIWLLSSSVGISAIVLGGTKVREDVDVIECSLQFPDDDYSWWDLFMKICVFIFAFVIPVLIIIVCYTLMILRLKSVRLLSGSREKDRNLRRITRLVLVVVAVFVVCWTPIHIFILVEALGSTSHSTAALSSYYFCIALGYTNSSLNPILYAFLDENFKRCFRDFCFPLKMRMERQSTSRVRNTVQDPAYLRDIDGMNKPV
Sequence of Serine/threonine-protein kinase MARK2 (Homo sapiens) (Q7KZI7 whole entry): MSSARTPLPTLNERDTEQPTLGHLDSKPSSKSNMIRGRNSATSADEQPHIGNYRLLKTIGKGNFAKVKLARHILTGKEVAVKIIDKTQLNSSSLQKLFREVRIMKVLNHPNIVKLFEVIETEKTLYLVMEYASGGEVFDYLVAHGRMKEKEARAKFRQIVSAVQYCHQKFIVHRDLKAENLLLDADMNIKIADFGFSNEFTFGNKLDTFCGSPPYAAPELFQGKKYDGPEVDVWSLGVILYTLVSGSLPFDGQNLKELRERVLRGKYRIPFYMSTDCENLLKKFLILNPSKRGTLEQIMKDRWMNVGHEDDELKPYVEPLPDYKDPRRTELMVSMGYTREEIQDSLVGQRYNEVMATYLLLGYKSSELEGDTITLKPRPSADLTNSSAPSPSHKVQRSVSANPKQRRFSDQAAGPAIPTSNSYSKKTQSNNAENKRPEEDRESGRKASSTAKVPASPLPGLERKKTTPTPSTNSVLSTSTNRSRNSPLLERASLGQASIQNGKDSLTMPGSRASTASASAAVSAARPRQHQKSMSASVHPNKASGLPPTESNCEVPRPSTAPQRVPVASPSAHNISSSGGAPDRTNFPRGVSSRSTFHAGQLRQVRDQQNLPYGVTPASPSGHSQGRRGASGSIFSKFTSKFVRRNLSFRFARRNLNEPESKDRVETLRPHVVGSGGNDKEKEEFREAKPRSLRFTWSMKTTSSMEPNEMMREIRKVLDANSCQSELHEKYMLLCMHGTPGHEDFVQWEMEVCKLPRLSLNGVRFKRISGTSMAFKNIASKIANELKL
Sequence of Platelet-derived growth factor receptor beta (Homo sapiens) (P09619 whole entry): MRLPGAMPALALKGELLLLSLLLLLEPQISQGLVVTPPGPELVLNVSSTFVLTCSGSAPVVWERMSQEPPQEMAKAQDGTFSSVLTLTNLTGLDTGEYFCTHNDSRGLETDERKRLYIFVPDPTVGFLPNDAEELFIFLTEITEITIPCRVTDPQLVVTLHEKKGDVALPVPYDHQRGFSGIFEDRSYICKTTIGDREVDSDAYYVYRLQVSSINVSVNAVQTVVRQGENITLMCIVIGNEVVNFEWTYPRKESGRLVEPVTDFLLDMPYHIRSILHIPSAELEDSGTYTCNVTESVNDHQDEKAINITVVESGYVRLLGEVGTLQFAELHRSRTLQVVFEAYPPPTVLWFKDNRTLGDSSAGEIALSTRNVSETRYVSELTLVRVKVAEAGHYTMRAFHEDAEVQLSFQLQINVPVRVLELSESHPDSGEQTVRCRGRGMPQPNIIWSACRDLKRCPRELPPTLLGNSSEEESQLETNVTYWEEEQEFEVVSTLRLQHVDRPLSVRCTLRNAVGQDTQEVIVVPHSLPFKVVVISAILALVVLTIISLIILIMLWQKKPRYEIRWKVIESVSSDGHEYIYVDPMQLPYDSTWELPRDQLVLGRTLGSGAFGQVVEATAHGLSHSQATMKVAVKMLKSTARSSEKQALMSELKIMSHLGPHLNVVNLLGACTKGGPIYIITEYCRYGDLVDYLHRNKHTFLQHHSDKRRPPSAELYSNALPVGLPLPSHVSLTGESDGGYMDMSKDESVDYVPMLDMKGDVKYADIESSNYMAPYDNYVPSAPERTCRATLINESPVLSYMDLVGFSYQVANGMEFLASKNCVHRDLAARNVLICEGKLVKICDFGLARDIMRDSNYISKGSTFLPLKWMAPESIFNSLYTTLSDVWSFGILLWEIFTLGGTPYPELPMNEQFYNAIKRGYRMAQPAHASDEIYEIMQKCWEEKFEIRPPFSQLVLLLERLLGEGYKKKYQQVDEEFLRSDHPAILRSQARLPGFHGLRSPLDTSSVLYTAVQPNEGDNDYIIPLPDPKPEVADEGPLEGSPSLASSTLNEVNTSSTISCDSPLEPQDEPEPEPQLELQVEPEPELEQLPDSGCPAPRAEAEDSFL

O=C1c2ccc(Nc3ccc(F)cc3F)cc2CCc2ccc(OC[C@H](O)CO)cc21 [Skepinone-L]
166 nM: Ki ([1]; read-out: pKi (converted))
active: inhibition [46] 83.1%
inactive: % Residual activity with Skepinone-L [2] 108% | % Residual activity with Skepinone-L [3] 102% | % Residual activity with Skepinone-L [4] 100% | % Residual activity with Skepinone-L [5] 86% | % Residual activity with Skepinone-L [6] 101% | % Residual activity with Skepinone-L [7] 103% | % Residual activity with Skepinone-L [8] 89% | % Residual activity with Skepinone-L [9] 91% | % Residual activity with Skepinone-L [10] 88% | % Residual activity with Skepinone-L [11] 99% | % Residual activity with Skepinone-L [12] 96% | % Residual activity with Skepinone-L [13] 86% | % Residual activity with Skepinone-L [14] 117% | % Residual activity with Skepinone-L [15] 100% | % Residual activity with Skepinone-L [16] 77% | % Residual activity with Skepinone-L [17] 80% | % Residual activity with Skepinone-L [18] 105% | % Residual activity with Skepinone-L [19] 95% | % Residual activity with Skepinone-L [20] 106% | % Residual activity with Skepinone-L [21] 113% | % Residual activity with Skepinone-L [22] 99% | % Residual activity with Skepinone-L [23] 104% | % Residual activity with Skepinone-L [24] 96% | % Residual activity with Skepinone-L [25] 102% | % Residual activity with Skepinone-L [26] 100% | % Residual activity with Skepinone-L [27] 88% | % Residual activity with Skepinone-L [28] 97% | % Residual activity with Skepinone-L [29] 96% | % Residual activity with Skepinone-L [30] 96% | % Residual activity with Skepinone-L [31] 97% | % Residual activity with Skepinone-L [32] 104% | % Residual activity with Skepinone-L [33] 99% | % Residual activity with Skepinone-L [34] 97% | % Residual activity with Skepinone-L [35] 77% | % Residual activity with Skepinone-L [36] 95% | % Residual activity with Skepinone-L [37] 90% | % Residual activity with Skepinone-L [38] 89% | % Residual activity with Skepinone-L [39] 89% | % Residual activity with Skepinone-L [40] 102% | % Residual activity with Skepinone-L [41] 100% | % Residual activity with Skepinone-L [42] 77% | % Residual activity with Skepinone-L [43] 108% | % Residual activity with Skepinone-L [44] 113% | % Residual activity with Skepinone-L [45] 91% | inhibition [47] -4% | inhibition [48] 10.8% | inhibition [49] 2.93%
172 nM: Ki ([1]; read-out: Ki)
